Laboratory results as given in patent US20260217983A1, “SULFONIUM SALT PHOTOINITIATORS AND METHODS OF LED CURING A COMPOSITION WITH SAID SULFONIUM SALT PHOTOINITIATORS” (ARKEMA FRANCE, priority 2022, published 2026).

How the values were obtained:
[1] = FTIR-ATR cure test of hybrid formulations (acrylate, epoxide conversion, 1100 cm^-1 peak growth); conditions: 405 nm; for Epoxide cure compared with Omnicat 550: 0.5% TPO-L, matched with control SC938/CPTX; for Epoxide cure compared with Omnicat 550 / acrylate cure with or without radical photoinitiator: high or low epoxide hybrid systems; for epoxide cure and total cationic cure compared with Omnicat 550 and SC992: in presence or absence of radical photoinitiator
Procedure: Matrixes: In a 1000 mL of metal can, formulation matrix was charged according to the percentage in Table 12. The 1000-1005 g mixture of each matrix sample was prepared and mixed by mechanical mixer for about 1 hour around 60° C. until the solution became clear. Formulations: In a white max 50 jar from FlackTek Inc., photoinitiator and propylene carbonate were loaded at first, mixed by hand with stainless steel spatula, placed in 60° C. oven for about 1 h, mixed again until it became clear. Then, formulation matrix was charged according to the percentage in one of Table 13 to 21. The […]-52.60 g mixture of each sample was prepared and mixed for 3 minutes at 3000 RPM in Speed Mixer from FleackTec Inc. Then, all jars were placed in 60° C. oven for about 2 h, taken out and immediately mixed for another 2 minutes until the solution became clear.
A Fourier Transform Infrared (FTIR) with an Attenuated Total Reflection (ATR) setup was used. All polymerization rate measurements were performed using Nicolet iS50 FT-IR Spectrometer from Thermo Scientific, equipped with a standard DLaTGS detector. A lamp holder for the ART platform of FTIR unit can be customized and printed from Arkema N3xtDimention® engineered resin N3D-TOUGH784 in order to ensure precisely fit of a 365 nm lamp Accucure ULM-2-365 or a 405 nm lamp Accucure ULM-2-405 from Digital Light Labs. On the bottom of this lamp holder, a dry air channel is built in to allow air uniformly blowing over sample surface, the gas flow rate can be controlled over a rotameter. The LED light was manually triggered by Ultraviolet illumination & Measurement System. LED light exposure can be programed by AccuCure software. For measurement, 25 μL of liquid sample was placed in the center of an ATR crystal. 3 mil of thin film was prepared by a customized coating applicator (3 mil WFM, G1046 from BYK). The LED lamp with holder was place on the top of ART platform. Then FTIR scan was initiated to collect liquid IR spectrum at first. Each IR spectrum of a specific exposure time at 10 mW/cm^2 of LED light were collected. Measurements of acrylate conversion were taken at the peak height under the reference peak around 1727 cm^−1; the acrylate peak of SR833S at approximately 1407 cm^−1, the epoxide peak of UviCure S105 at approximately 790 cm^−1, and the oxetane peak of UViCure S130 at approximately 970 cm^−1 were also measured. Since the ring opening of both epoxide and oxetane generated C—O—C bond, the growth of C—O—C IR peak height at ~1100 cm^−1 was monitored as well. The resulting of peak 1100 cm^−1 growth rate could be calculated to assess total cationic cure speed. Peak heights were determined using the same baseline where a baseline is chosen to be the two lowest points between 600 cm^−1 and 1800 cm^−1. The peak height under the peak and above the baseline was then determined. The integration limits for liquid and the cured sample are not identical but are similar, especially for the reference peak.
The ratios of the acrylate peak height, epoxide peak height, ring opening peak height from both epoxide and oxetane to the reference peak height were determined for both the liquid and the cured samples. Degree of cure or conversion or peak growth rate, expressed as percentage reacted acrylate or epoxide or ring opening of both epoxide and oxetane, was calculated from the equation below: […]
Where Rliq is the peak height ratio of the liquid sample and Rc is the peak height ratio of the LED cured sample. The resulting acrylate and epoxide conversions or C—O—C growth rates were collected and listed in Tables 13 to 21, plotted in FIG. 1 to 8 and FIG. 10.

[2] = Real time FT-IR curing performance in UViCure S105 at 365 and 385 nm; conditions: for Polymerization rate Rp/[M0]*100 / Final conversion: UViCure S105, 20 μm thickness, under air; for Final conversion: epoxide band; for cure speed compared with photoinitiators known from prior art such as Omnicat BL 550: LED lamp conditions, Example 2
Procedure: (§1) The curing performance of individual products prepared above was assessed using real time FT-IR measurement. The photoinitiators were dissolved in cycloaliphatic epoxy resin UViCure S105 (available from Sartomer) at the indicated wt % loading, applied onto the FT-IR measurement plate and irradiated with the indicated LED light source. The polymerization rate and final reactive group conversion were determined by monitoring the change of the relevant infrared band near 900 cm^−1 corresponding to an epoxide ring during irradiation. The molar extinction coefficients for the photoinitiator products (ε, expressed in M^−1 cm^−1) were determined in acetonitrile at 10^-3 M or 10^-5 M concentration.

[3] = Real time FT-IR curing performance at 405 nm in neat TMPTA; conditions: 20 μm thickness, laminated; for Acrylate Polymerization rate Rp/[M0]*100: LED @405 nm (110 W/cm^2); for Acrylate Final conversion: LED @405 nm (110 mW/cm^2)
Procedure: (§2) The curing performance of individual products prepared above was assessed using real time FT-IR measurement. The photoinitiators were dissolved either in neat trimethylolpropane triacrylate (TMPTA; available as SR351 from Sartomer) or in a 1:1 (w/w) mixture of TMPTA and UViCure S105 as indicated, applied onto the FT-IR measurement plate, laminated to prevent oxygen inhibition, and irradiated with the indicated LED light source. For the epoxy component, the polymerization rate and final reactive group conversion were determined by monitoring the change of the relevant infrared band near 900 cm^−1 corresponding to an epoxide ring. For the acrylate component, the C═C stretch band near 1625 cm^−1 was used.

[4] = Real time FT-IR curing performance at 405 nm in UViCure S105/TMPTA (1:1); conditions: LED @405 nm (110 mW/cm^2), 20 μm thickness, laminated
Procedure: as §2

[5] = Solubility in propylene carbonate at ambient temperature; type: physicochemical; conditions: 20-25° C.
Procedure: Solubility of selected sulfonium salts in propylene carbonate at ambient temperature (20-25° C.) was determined.

[6] = Molar extinction coefficient in acetonitrile; type: physicochemical
Procedure: as §1

[7] = Working-curve measurement (Ec, Dp) on 405 nm DLP printers; conditions: at lower concentration
Procedure: Working-curves were printed on the 405 nm~3 mW/cm^2 Flashforge Hunter DLP printer or on the 405 nm~12 mW/cm^2 B9 Core 550 DLP printer from B9Creation. Various energy dosages were irradiated in sections of the build area (without a build platform installed), resulting in individual squares or thin films being cured. The thickness of the individual thin films were measured with a low force digital caliper+comparator stand from Mitutoyo to determine the cure depths. A plot of the cure depths vs. the logarithm of energy dosages was used to determine the critical exposure (Ec, mJ/cm^2) and penetration depth (Dp, mils).

[8] = LED @365 nm (120 W/cm^2), PI loading 1 wt % (Omnicat BL 550 4 wt %; Speedcure 938/CPTX 1/0.5 wt %)

Structure (SMILES) | Epoxide cure compared with Omnicat 550 [1] | Polymerization rate Rp/[M0]*100 [2, 8] [s⁻¹] | Final conversion ([2]; LED @365 nm (120 W/cm^2)) [%] | Polymerization rate Rp/[M0]*100 ([2]; LED @385 nm (160 W/cm^2)) [s⁻¹] | Final conversion ([2]; LED @385 nm (160 W/cm^2)) [%] | Acrylate Polymerization rate Rp/[M0]*100 [3] [s⁻¹] | Acrylate Final conversion [3] [%] | Acrylate Final conversion [4] [%] | Acrylate Polymerization rate Rp/[M0]*100 [4] [s⁻¹] | Epoxy Final conversion [4] [%] | Epoxy Polymerization rate Rp/[M0]*100 [4] [s⁻¹] | Solubility in propylene carbonate [5] [wt %] | ε at 365 nm [6] [M⁻¹ cm⁻¹] | ε at 385 nm [6] [M⁻¹ cm⁻¹] | cure speed compared with photoinitiators known from prior art such as Omnicat BL 550 [2] | acrylate cure with or without radical photoinitiator [1] | epoxide cure and total cationic cure compared with Omnicat 550 and SC992 ([1]; hybrid systems) | acrylate cure in presence of BKL or XKm, or without any radical initiator ([1]; hybrid systems, like SC938/CPTX) | Dp and Ec compared with 4 (comp.) [7]
CC(C)c1ccc2sc3ccc(-[s+]4c5ccccc5c(=O)c5cc(C(C)C)ccc54)cc3c(=O)c2c1 (stereo not shown) [Photoinitiator 1, 9-oxo-10-[9-oxo-7-(propan-2-yl)-9H-thioxanthen-2-yl]-2-(propan-2-yl)-9H-thioxanthen-10-ium hexafluorophosphate] | better than that from Omnicat 550 | 8.93 | 35 | 8.89 | 36 | 3.43 | 38 | 83 | 10.57 | 47 | 8.12 | >50 | 23380 | 23514 |  |  |  |  | 
Cc1ccc([S+](c2ccc(C(=O)c3ccccc3)cc2)c2ccc3sc4ccc(C(C)C)cc4c(=O)c3c2)cc1 (stereo not shown) [Photoinitiator 2, (4-benzoylphenyl)(4-methylphenyl)[9-oxo-7-(propan-2-yl)-9H-thioxanthen-2-yl]sulfonium Hexafluorophosphate] |  | 4.11 | 41 | 5.96 | 41 | 4.58 | 53 | 81 | 11.56 | 45 | 6.12 | >48 | 14201 | 14921 | higher cure speed |  |  |  | 
CCc1cc(CC)c2sc3ccc([S+](c4ccc(C)cc4)c4ccc(C(=O)c5ccccc5)cc4)cc3c(=O)c2c1 (stereo not shown) [Photoinitiator 4, (4-benzoylphenyl)(5,7-diethyl-9-oxo-9H-thioxanthen-2-yl)(4-methylphenyl)sulfonium Hexafluorophosphate] | better than that from Omnicat 550 | 5.74 | 25 | 4.80 | 25 | 5.70 | 64 | 83 | 12.20 | 45 | 6.29 | >47 | 13154 | 13649 | higher cure speed | high acrylate cure | better epoxide cure and total cationic cure than Omnicat 550 and SC992 | could cure acrylate very well | 
CCCOc1ccc(Cl)c2c(=O)c3cc(-[s+]4c5ccccc5c(=O)c5c(Cl)ccc(OCCC)c54)ccc3sc12 (stereo not shown) [Photoinitiator 5, 1-chloro-10-(8-chloro-9-oxo-5-propoxy-9H-thioxanthen-2-yl)-9-oxo-4-propoxy-9H-thioxanthen-10-ium Hexafluorophosphate] | better than that from Omnicat 550 | 6.57 | 36 | 5.90 | 39 | 2.01 | 51 | 70 | 6.03 | 44 | 3.87 | 42 | 37326 | 23429 | higher cure speed | high acrylate cure | better epoxide cure and total cationic cure than Omnicat 550 and SC992 |  | lower Op and higher Ec than 4 (comp.)
